“Also recorded” adds a separate entry of the source.
Assays:
[1] = Acidic nature; type: physicochemical
[2] = Acute toxicity (LD50), intraperitoneal administration to female ICR mice; details: mouse, in vivo
Experimental: Toxicity of Conagenin was tested by intraperitoneal administration to female ICR mice and estimated as its LD50 being higher than 50 mg/Kg.

[3] = system: Ehrlich's solid carcinoma; experiment: Inhibitory activity on Ehrlich's solid carcinoma in mice; type: in vivo, mice (ICR, female); details: for Percent inhibition (decrease in weight of solid carcinoma vs untreated control): once a day for 7 days from 7th day, weighed on 15th day
Experimental: (2) Inhibitory activity on Ehrlich's solid carcinoma in mice ICR mice (female, 6 weeks-aged, 4 mice in each group) were inoculated with Ehrlich's ascites carcinoma cells (2×10^6 per mouse in the form of a cell suspension) subcutaneously at the groin of the mice. After the 7th day from the inoculation of the carcinoma cells, an injectable solution of Conagenin was intraperitoneally injected into the carcinoma-bearing mice at a dosage of 6.25, 3.1, 1.56, 0.78, 0.39 and 0.195 mg/Kg once a day during the consecutive 7 days for each group of mice. On the 15th day from the inoculation of the carcinoma cells, the solid carcinoma so grown was cut off and the weight of the solid carcinoma was determined. Control test was conducted using 8 mice of the same type as above in a usual manner. Percent inhibition of the proliferation of the solid carcinoma, i.e. the percent decrease in the weight of the solid carcinoma in each treated group of mice administered with Conagenin as compared to that in the control group of mice (untreated), is callculated and shown in Table 3 below.

[4] = system: Leukemia L1210 cells; experiment: Effect on the surface of carcinoma cell membrane: binding of radiolabelled Concanavalin A to Leukemia L1210 cells; type: cell-based
Experimental: Each of the resulting suspensions was incubated in a CO2 -incubator (CO2 concentration:5%) at 37° C. for 2 days. A radioisotope-labelled Concanavalin A (Concanavalin A N-[acetyl-^3 H] acetylated; a product of Amersham Co., Ltd.) in an amount of 40 nCi/ml was added to the suspension under incubation at a time of one hour before the end of the incubation. The incubated cells were fixed on a filter paper by a cell harvester and the radioactivity value of the cells so fixed was measured by a liquid scintillation counter. The respective values thus given were converted assumed that the radioactivity value of the control group sample was amounting to 100, and the converted values are shown in Table 4 as the increase in binding of Concanavalin A to L1210 cells.

[5] = Solubility; type: physicochemical

Compound: CC(O)C(C)C(O)C(=O)NC(C)(CO)C(=O)O (centres unmarked) [Conagenin]
- acidity (in words) [1]: weakly acidic
- toxicity (in words) [2]: low toxicity
- LD50 ([2]; ip, intraperitoneal, female ICR mice): > 50 mg/kg
- Percent inhibition (decrease in weight of solid carcinoma vs untreated control) ([3]; 0.195 mg/Kg/day i.p.): 44%
- Percent inhibition (decrease in weight of solid carcinoma vs untreated control) ([3]; 0.39 mg/Kg/day i.p.): 29%
- Percent inhibition (decrease in weight of solid carcinoma vs untreated control) ([3]; 0.78 mg/Kg/day i.p.): 58%
- Percent inhibition (decrease in weight of solid carcinoma vs untreated control) ([3]; 1.56 mg/Kg/day i.p.): 44%
- Percent inhibition (decrease in weight of solid carcinoma vs untreated control) ([3]; 3.1 mg/Kg/day i.p.): 67%
- Percent inhibition (decrease in weight of solid carcinoma vs untreated control) ([3]; 6.25 mg/Kg/day i.p.): 45%
- carcinostatic or antitumor activity in vivo (in words) ([3]; Ehrlich's solid carcinoma in mice): significant carcinostatic or antitimor activity; also recorded: significant carcinostatic or antitumor activity in vivo
- binding of Concanavalin A to L1210 cells (in words) [4]: could increase the binding of Concanavalin A to L1210 cells
- activity at 0.25 µg/mL ([4]; Mus musculus, L1210, 48 h, 0.25 μg/ml, 37° C., 2 days, control group = 100, read-out: Increase in binding of Concanavalin A): < 100%
- activity at 0.5 µg/mL ([4]; Mus musculus, L1210, 48 h, 0.5 μg/ml, 37° C., 2 days, control group = 100, read-out: Increase in binding of Concanavalin A): 129%
- activity at 1 µg/mL ([4]; Mus musculus, L1210, 48 h, 1.0 μg/ml, 37° C., 2 days, control group = 100, read-out: Increase in binding of Concanavalin A): 121%
- Solubility in chloroform ([5]; chloroform): insoluble; also recorded: sparingly soluble
- Solubility in methanol ([5]; methanol): readily soluble; also recorded: Easily soluble
- Solubility in water ([5]; water): soluble in water
